Laboratory results as given in patent US20100183546A1, “Method for Increasing CD8+ Cytotoxic T Cell Responses and for Treating Multiple Sclerosis” (Baylor College of Medicine, priority 2003, published 2010).

Each substance was assayed on CD8+ T cells in CD4-depleted PBMC (assay: Precursor frequency analysis of CD8+ T cells recognizing MBP-derived peptides (split-well method, [3H]-thymidine proliferation)). Details: MS patients vs healthy controls; p<0.05 for MBP111-119 and MBP87-95.
Assay type: cell-based, human

| Substance | frequency of peptide-recognizing CD8+ T cells in MS patients compared with control subjects |
| --- | --- |
| immunodominant epitope (residues 830-838) of tetanus toxoid: synthetic peptide corresponding to an immunodominant peptide of tetanus toxoid (residues 830-838), used as control (QYIKANSKF; UniProt P04958 830-838, looked up, fragment) [reference compound] | did not differ significantly |
| SLSRFSWGA [SEQ ID NO. 2, Fragment of human MBP, amino acids 111-119] | considerably higher |
| MBPVVHFFKNIV [SEQ ID NO. 1, Fragment of human MBP, amino acids 87-95] | considerably higher |
